Values of other authors in patent publication US20130331260A1, “Odour-Control Superabsorbent” (BASF SE, priority 2012, published 2013).

Experiments:
[1] = tested on: seed germination in urea-based fertiliser

In the case of `NP(N)(=O)NC(=O)c1ccc(F)cc1` [fluorofamide, N-[Diaminophosphinyl]-4-fluorobenzamide], the antibacterial properties (Helicobacter sp.) is given as “no measurable antibacterial properties” and the “effect on seed germination compared with non-fluorinated analogue” value [1] is given as “worked better than its non-fluorinated analogue in most cases”.
